pIC50: −log10 of the molar value. Bounds are passed on as bounds.

One experiment has as its system CCRF-CEM. Briefly: MTS cytotoxicity assay, 72 h. It counts as cell-based. Conditions: Homo sapiens, CCRF-CEM, 72 h; MTS assay, 3-day incubation, mean ± SD of 3 experiments; read-out: IC50 CCRF-CEM.
The next experiment concerns K562. The experiment can be described thus: MTS cytotoxicity assay, 72 h. It counts as cell-based. Conditions: Homo sapiens, K562, 72 h; MTS assay, 3-day incubation, mean ± SD; read-out: IC50 K562.
The subject of another experiment is HCT116. Briefly: MTS cytotoxicity assay, 72 h. Type of experiment: cell-based. The conditions noted are these: Homo sapiens, HCT-116, 72 h; MTS assay, 3-day incubation, mean ± SD; read-out: IC50 HCT116.
Another experiment concerns HCT116p53–/–. Briefly: MTS cytotoxicity assay, 72 h. Type of experiment: cell-based. Conditions: MTS assay, 3-day incubation, mean ± SD, read-out: IC50 HCT116p53–/–.
For a further experiment, the system named is U2OS. The experiment can be described thus: MTS cytotoxicity assay, 72 h. It counts as cell-based, human. Conditions: Homo sapiens, U2OS, 72 h; MTS assay, 3-day incubation, mean ± SD; read-out: IC50 U2OS.
In the next experiment the test system is MRC-5. Briefly: MTS cytotoxicity assay, 72 h. It counts as cell-based. Conditions: Homo sapiens, MRC5, 72 h; normal fibroblasts; MTS assay, 3-day incubation, mean ± SD; read-out: IC50 MRC-5.
For the next experiment, the system named is BJ. Briefly: MTS cytotoxicity assay, 72 h. It counts as cell-based. Conditions: Homo sapiens, normal fibroblasts, MTS assay, 3-day incubation, mean ± SD, read-out: IC50 BJ.
A further experiment relates to A549. The experiment can be described thus: MTS cytotoxicity assay, 72 h. Type of experiment: cell-based. The conditions noted are these: Homo sapiens, Fig. S22. The protocol:
Cell suspensions were prepared and diluted according to the particular cell type and the expected target cell density (500 – 4,000 cells/well). The cells (30 μL/well) were seeded to 384-well clear Corning plates by MultiDrop Combi (Thermo Fisher Scientific, USA). After 24 h the cells were treated with tested compounds as well as with vehicle (DMSO) and high controls (2.67 μM of Actinomycin D and 100 μM Mitomycin C) using contact-free acoustic liquid handler ECHO 555 (Labcyte, USA). Compounds were analyzed at a concentration range from 0.012 μM to 50 μM. Treated cells were incubated at 37 °C in a 5% CO2 atmosphere of a humidified incubator for 72 h. At the end of the incubation period, aliquots of the MTS (Promega) solution prepared according to manufacturer's instructions were added to cells (https://worldwide.promega.com/resources/protocols/technical-bulletins/0/celltiter-96-aqueous-nonradioactive-cell-proliferation-assay-protocol/). After 1 – 4 h of the incubation period, the optical density (OD) at 490 nm was measured on a multimode plate reader EnVision (PerkinElmer, USA). The experiments were performed in technical duplicates and at least three biological replicates. […] The assay quality was monitored by determining the Z′-factor for each 384-well plate. The resistance index (RI), representing the reduction in compound activity on resistant cell lines, was calculated as RI = (IC50 of resistant cell lines, CEM-DNR, K562-TAX)/(IC50 of nonresistant counterparts, CCRF-CEM, K562). Similarly, the selectivity index (SI), indicating preferential cytotoxicity toward tumor cell lines, was calculated as SI = (mean IC50 of nontumor cell lines, BJ and MRC5)/(mean IC50 of cancer cell lines without resistant variants, CCRF-CEM, K562, HCT116, HCT116p53–/–, U2OS).

In a further experiment the test system is CEM-DNR. The experiment can be described thus: MTS cytotoxicity assay, 72 h. Type of experiment: cell-based. Conditions: Homo sapiens, daunorubicin-resistant, MTS assay, 3-day incubation, mean ± SD, read-out: IC50 CEM-DNR.
A further experiment relates to K562-TAX. Briefly: MTS cytotoxicity assay, 72 h. Conditions: paclitaxel-resistant, MTS assay, 3-day incubation, mean ± SD, read-out: IC50 K562-TAX. Type of experiment: cell-based.
Experiment [1] has as its system microtubules in U2OS cells. Briefly: Immunofluorescence of microtubule organization. Conditions: 0.1 μM, 15 h. It counts as cell-based, human. The protocol: DMSO at appropriate dilution served as control.
Immunofluorescence microscopy on formaldehyde-fixed, Triton X-100 extracted cells (F/Tx) was performed as previously described. Extraction and fixation steps were carried out in a microtubule stabilizing buffer consisting of 0.1 M KMes, 2 mM EGTA, 2 mM MgCl2, 4% polyethylene glycol 6000, pH 6.9. Cells were fixed for 30 min in 3% formaldehyde before extraction for 4 min with 0.5% Triton X-100 at 37 °C. Mouse monoclonal antibody TU-01 (IgG1) directed to α-tubulin , in the form of hybridoma spent culture medium was diluted 1:10. The DyLight 549-conjugated antimouse antibody (Jackson Immunoresearch Laboratories, West Grove, PA, USA) was diluted 1:500. Samples were mounted in MOWIOL 4–88 (Calbiochem, San Diego, CA, USA) supplemented with 4,6-diamidino-2-phenylindole (DAPI; Sigma-Aldrich, St. Louis, MO, USA) and examined with an Olympus AX-70 Provis microscope (Olympus, Hamburg, Germany) equipped with a 60×/1.0 water objective.

In a further experiment the test system is CCRF-CEM lymphoblasts. Briefly: FACS analysis of cell cycle, apoptosis, mitosis and polyploidy. The conditions noted are these: for Mitosis: phospho-Histone (Ser10); for Apoptosis: sub-G0/G1 DNA content, % of positive cells.

`CC1=CC(C)=[N+]2C1=C(CCCCCCCCCCC(=O)O)c1c(C)cc(C)n1[B-]2(F)F` [B2]: the pIC50 in the experiment with CCRF-CEM, with K562, in the experiment on HCT116, in the experiment on HCT116p53–/–, in the experiment on U2OS and with MRC-5 was less than 4.30 throughout. Further, the pIC50 in the experiment with BJ and in the experiment on A549 was less than 4.30 in each case.
On to `CC1=CC(C)=[N+]2C1=C(CCCCBr)c1c(C)cc(C)n1[B-]2(F)F` [B3, difluoro-1,3,5,7-tetramethyl-4-bora-3a,4a-diaza-s-indacene-8-yl)butyl bromide], for which the pIC50 with CCRF-CEM, with CEM-DNR, with K562, in the experiment on K562-TAX, with HCT116 and with HCT116p53–/– was less than 4.30 in each case. Moreover, the pIC50 in the experiment on U2OS, with MRC-5, in the experiment on BJ and with A549 was less than 4.30 each time.
With `CC1=CC(C)=[N+]2C1=C(CCCCN)c1c(C)cc(C)n1[B-]2(F)F` [B4], the pIC50 in the experiment on CCRF-CEM was 4.48; in the experiment on CEM-DNR it was less than 4.30; with K562, less than 4.30; in the experiment with K562-TAX, less than 4.30; in the experiment with HCT116, less than 4.30; in the experiment on HCT116p53–/–, less than 4.30. The pIC50 in the experiment on U2OS, in the experiment on MRC-5, in the experiment on BJ and in the experiment with A549 was less than 4.30 each time.
In the case of `CNCCCCC1=C2C(C)=CC(C)=[N+]2[B-](F)(F)n2c(C)cc(C)c21` [B5], the pIC50 with CCRF-CEM is 4.56; in the experiment with CEM-DNR, 4.44; in the experiment with K562, less than 4.30; in the experiment on K562-TAX it was 4.45; with HCT116 it was less than 4.30; in the experiment on HCT116p53–/– it was less than 4.30. Besides, the pIC50 in the experiment on U2OS, in the experiment with MRC-5, with BJ and with A549 was less than 4.30 in each case.
`CC1=CC(C)=[N+]2C1=C(CCCCN(C)C)c1c(C)cc(C)n1[B-]2(F)F` [B6]: the pIC50 in the experiment with CCRF-CEM, in the experiment with CEM-DNR, with K562, in the experiment with K562-TAX, with HCT116 and with HCT116p53–/– was less than 4.30 in each case. The pIC50 with U2OS, in the experiment with MRC-5, in the experiment on BJ and in the experiment with A549 was less than 4.30 throughout.
Consider `COc1cc(C2=C3C(C)=CC(C)=[N+]3[B-](F)(F)n3c(C)cc(C)c32)ccc1O` [B7], for which the pIC50 with CCRF-CEM is less than 4.30; in the experiment with CEM-DNR it was 4.40; in the experiment with K562, less than 4.30; in the experiment on K562-TAX it was less than 4.30; in the experiment with HCT116, less than 4.30; in the experiment on HCT116p53–/–, less than 4.30. Further, the pIC50 in the experiment on U2OS, in the experiment on MRC-5, in the experiment on BJ and in the experiment with A549 was less than 4.30 each time.
Consider `C#CCOc1ccc(C2=C3C(C)=CC(C)=[N+]3[B-](F)(F)n3c(C)cc(C)c32)cc1OC` [B8], for which the pIC50 with CCRF-CEM, in the experiment with CEM-DNR, in the experiment with K562, in the experiment with K562-TAX, with HCT116 and in the experiment on HCT116p53–/– was less than 4.30 each time. In addition, the pIC50 in the experiment with U2OS, in the experiment with MRC-5, in the experiment with BJ and with A549 was less than 4.30 each time.
In the case of `C#CCCCC1=C2C(C)=CC(C)=[N+]2[B-](F)(F)n2c(C)cc(C)c21` [B9], the pIC50 in the experiment on CCRF-CEM, in the experiment on CEM-DNR, with K562, in the experiment on K562-TAX, in the experiment on HCT116 and with HCT116p53–/– was less than 4.30 each time. Further, the pIC50 in the experiment with U2OS, in the experiment on MRC-5, in the experiment on BJ and in the experiment with A549 was less than 4.30 in each case.
As for `C#CCCCCCCCCC1=C2C(C)=CC(C)=[N+]2[B-](F)(F)n2c(C)cc(C)c21` [B10], the pIC50 in the experiment with CCRF-CEM, in the experiment on CEM-DNR, in the experiment on K562, in the experiment on K562-TAX, in the experiment with HCT116 and in the experiment on HCT116p53–/– was less than 4.30 in each case. Moreover, the pIC50 in the experiment with U2OS, in the experiment with MRC-5, in the experiment with BJ and with A549 was less than 4.30 each time.
Regarding `COc1cc2c(c(OC)c1OC)-c1ccc(OC)c(=O)cc1[C@@H](NC(C)=O)CC2` [Col, colchicine, reference compound], the “effect on microtubules (in words)” value in [1] is recorded as “effectively depolymerized microtubules”. In the experiment on CCRF-CEM lymphoblasts (1×IC50, 24 h), the G0/G1 was 2.61%, the G2/M stood at 80.55%, the Polyploid cells was 14.45% and the S turned out to be 16.84%. Further, in the experiment with CCRF-CEM lymphoblasts (1×IC50, 24 h), the Mitosis is recorded as 58.35% and the Apoptosis was determined as 13.67%. In the experiment with CCRF-CEM lymphoblasts (5×IC50, 24 h), the G0/G1 is reported as 4.73%, the G2/M was determined as 70.57%, the Polyploid cells is 14.73% and the S is listed as 24.71%. In the experiment with CCRF-CEM lymphoblasts (5×IC50, 24 h), the Mitosis is on record as 64.48% and the Apoptosis was found to be 11.47%. In addition, the “polyploidization in CCRF-CEM cells (in words)” value in the experiment on CCRF-CEM lymphoblasts (both 1 × IC50 and 5 × IC50) is listed as “induced polyploidization”.
